# How the values were obtained:
# in vitro [1] = conditions: human, liver microsomes
# in vitro [2] = conditions: mouse, liver microsomes
"half-life at 1 h, 1 µM (in vitro [1])","half-life at 1 h, 1 µM (in vitro [2])",Structure (SMILES)
> 186 min,105 min,CC(C)c1cnn2c(NCc3ccccc3)cc(NC[C@H]3CCNC[C@@H]3O)nc12 [CT-7001]
16.9 min,27.7 min,COC1CCCC2(CCNCC2)CNc2nc(n3ncc(C(C)C)c3n2)NCc2ccccc2OC1 (centres undefined)

# Reference: ChEMBL document CHEMBL5543135, “Design and Synthesis of Novel Macrocyclic Derivatives as Potent and Selective Cyclin-Dependent Kinase 7 Inhibitors” (J Med Chem, 2024)
